Experimental data reported in article PMC11397358, “Cytotoxic Activity of Novel GnRH Analogs Conjugated with Mitoxantrone in Ovarian Cancer Cells” (Molecules, 2024).

What was measured:
human GnRH-R = target: T1, human GnRH-R (Homo sapiens, UniProt P30968); experiment: Calcium-based (fura-2) kinetic assay of GnRH-R agonism; format: cell-based; conditions: HEK293 cells transiently transfected with human GnRH-R; fura-2 ratio, 96-well, Flexstation 3; experiments performed a minimum of three times; read-out: EC50 for increase in intracellular [Ca2+]
T1 construct: host or cells: HEK293 (ATCC CRL-1573)
T1 sequence (P30968 1-328): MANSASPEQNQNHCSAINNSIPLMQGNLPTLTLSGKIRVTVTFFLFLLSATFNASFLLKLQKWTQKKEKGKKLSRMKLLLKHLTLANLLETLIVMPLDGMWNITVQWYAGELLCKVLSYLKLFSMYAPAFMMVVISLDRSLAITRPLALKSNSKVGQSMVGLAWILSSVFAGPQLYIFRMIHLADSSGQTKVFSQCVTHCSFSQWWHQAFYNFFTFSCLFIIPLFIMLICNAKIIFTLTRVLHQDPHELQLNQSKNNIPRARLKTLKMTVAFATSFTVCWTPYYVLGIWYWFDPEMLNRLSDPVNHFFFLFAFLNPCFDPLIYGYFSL
Method: For this purpose, fura-2-based kinetic assays to monitor the [Ca^2+] were performed in real-time using suspensions of HEK293 cells transiently transfected with the human GnRH-R (Figure 2A–I).
HEK293 cells transfected with the human GnRH-R served as a platform with which to test for agonist actions of individual test compounds. These cells were loaded with the ratiometric Ca^2+ indicator fura-2 so that the change in intracellular [Ca^2+] in response to agonist stimulation could be monitored in real time in a 96-well format. For these assays, the individual test compounds were administered at the 100 s time point.
Two days post-transfection, the HEK293 cells were harvested via trypsinization to obtain single-cell suspensions that were plated at 80% density on rat tail collagen-coated 96-well Costar 3904 plates for loading with the ratiometric Ca^2+ indicator fura-2. Measurements of the intracellular [Ca^2+] were performed using a Flexstation 3 microplate reader (Molecular Devices, Sunnyvale, CA, USA). Briefly, test solutions containing GnRH-R agonists were administered to individual wells of a 96-well plate using the automated pipetting feature of the Flexstation under computer control. […] Emitted light was detected at 505/15 nm, and the ratio of emission light intensity due to excitation at 335/9 and 375/9 nm was calculated. […]

SKOV-3 cells [1] = experiment: Cell proliferation (MTT) assay; format: cell-based, human; conditions: over time (days 2–4) and at various concentrations
Method: The antiproliferative effects of GnRH-mitoxantrone conjugates, Con-3, and Con-7, were evaluated using the SKOV-3 cells. The Con-3 and Con-7 conjugates decreased the proliferation rate of SKOV-3 cells in a dose-dependent manner on days 2, 3, and 4 (Figure 3A–C).
Figure 3 Antiproliferative activity of the GnRH analogs. Decrease in the proliferation rate of the SKOV3 cells after their treatment with increasing concentrations of Con-3, Con-7, Con-P1 or Con-P2 for 2 days (A), 3 days (B) and 4 days (C) at 37 °C. At the end of the incubation, the cells were further incubated with 0.5 mg/mL MTT for 4 h at room temperature and the formed purple formazan crystals were quantified by measuring absorbance at 594 nm. The means ± S.E (triplicate determination) are shown from a representative experiment performed 3 times with similar results. The proliferation rates of cells treated with 1 μΜ of GnRH analogs were used to plot the graph D which depicts the decrease in cell growth over the incubation time (D). Statistical analysis was performed using one-way ANOVA.
At the end of the incubation, the cells were further incubated with 0.5 mg/mL MTT for 4 h at room temperature and the formed purple formazan crystals were quantified by measuring absorbance at 594 nm. The means ± S.E (triplicate determination) are shown from a representative experiment performed 3 times with similar results. […] Statistical analysis was performed using one-way ANOVA.
SKOV-3 cells (kindly provided by Prof. Dimitrios Mavroudis, University of Crete) were seeded into 96-well plates at a density of 6000 cells/well, in triplicates, and incubated overnight in Dulbecco’s modified Eagle’s medium/F12 (DMEM/F12) (1:1), containing 3.15 g/L glucose and 10% bovine calf serum (BCS, HyClone), at 37 °C and 5% CO2. At the end of the incubation, the culture medium was replaced with a fresh one containing 3.15 g/L glucose and 2% BCS, with or without increasing concentrations of GnRH analogs or mitoxantrone (0.1 nM–10 µM), and the cells were further incubated at 37 °C and 5% CO2 for 2, 3 and 4 days. Subsequently, (3-(4,5-dimethylthiazol-2-yl)-2,5- diphenyl tetrazolium bromide) (MTT) was added at a final concentration of 0.5 mg/mL, and the mixtures were incubated for 4 h at room temperature in the dark, allowing the viable cells to reduce the MTT to formazan crystals. The supernatants were removed, and the purple formazan crystals were dissolved in isopropanol containing 4% HCl (100 μL/well) by mixing thoroughly for 30 min in the dark, before the quantification of the absorbance at 594 nm using a Dynatech MicroElisa reader (Chantilly, VA, USA). The percentage of the proliferation rate (% proliferation rate) treated with a GnRH analog was determined based on the following equation: % proliferation rate = (absorbance of cells treated with a GnRH analog/absorbance of untreated cells) × 100. The % viability of the untreated cells (control) was defined as 100%. The % viabilities were analyzed by nonlinear regression analysis, using Prism 8.0 (GraphPad Software, Prism 8.0, San Diego, CA, USA).

SKOV-3 cells [2] = experiment: Annexin V / propidium iodide apoptosis assay by flow cytometry; format: cell-based, human; conditions: 1 μM, 2, 3 and 4 days; flow cytometry
Source text: We next evaluate the abilities of Con-3 and Con-7 at concentrations of 1 μΜ to induce cell death by determining the percentages of live, apoptotic and necrotic cells after treatment of SKOV-3 cells with the GnRH conjugates. As shown in Figure 5 and Figures S1–S3 on day 2, the majority of SKOV-3 cells were viable (Q4 quadrant), treated either with Con-3, Con-7 or mitoxantrone, whereas the percentage of apoptotic cells (late or early apoptotic) (Q1, Q2 quadrants) was only 10.1%, 10.87% and 13.1% after treatment with Con-3, Con-7 or mitoxantrone, respectively. […] Cell viability further decreased on day 4 with a concomitant increase in apoptosis. Specifically, the percentage of apoptotic cells was 53.5%, 59.6% and 54.3% after treatment with Con-3, Con-7 or mitoxantrone (Figure 5 and Figures S7–S9). In all phases, the percentage of the necrotic and late apoptotic cells (Q3 quadrant) was very small.
Figure 5 Determination of viability, apoptosis, or necrosis of SKOV-3 cells after their treatment with 1 μM Con-3, Con-7, or mitoxantrone for 2, 3, and 4 days at 37 °C. At the end of the incubation the cells were further incubated in binding buffer supplied by Biotium, (CF488A Apoptosis Detection kit) and analyzed on a flow cytometer (excitation 488 nm), in the FITC channel (filter 530 nm) for detection of the Annexin V-positive cellsand in the propidium iodide, or PI, channel (filter 616 nm) for detection of the PI-positive cells. The figures are from a representative experiment performed three times with similar results. A higher resolution of the images in Figure 5 is provided in the Supplementary Material (Figures S1–S9). TEXT PRINTED IN THE PICTURE: Con-3: Q3: 4,19 (Day 2); Q2: 7,12 (Day 2); Q4: 85,7 (Day 2); Q1: 2,98 (Day 2); Q3: 5,31 (Day3); Q2: 19,5 (Day3); Q4: 58,0 (Day3); Q1: 17,1 (Day3); Q3: 3,54 (Day4); Q2: 17,1 (Day4); Q4: 43,0 (Day4); Q1: 36,4 (Day4) | Con-7: Q3: 6,31 (Day 2); Q2: 7,74 (Day 2); Q4: 82,8 (Day 2); Q1: 3,13 (Day 2); Q3: 8,11 (Day3); Q2: 19,8 (Day3); Q4: 56,8 (Day3); Q1: 15,3 (Day3); Q3: 3,48 (Day4); Q2: 19,7 (Day4); Q4: 36,9 (Day4); Q1: 39,9 (Day4) | Mitoxantrone: Q3: 6,49 (Day 2); Q2: 9,40 (Day 2); Q4: 80,4 (Day 2); Q1: 3,67 (Day 2); Q3: 7,13 (Day3); Q2: 18,9 (Day3); Q4: 61,0 (Day3); Q1: 13,1 (Day3); Q3: 2,72 (Day4); Q2: 17,3 (Day4); Q4: 43,0 (Decimal sign as read) (Day4); Q1: 37,0 (Day4) DOUBTS OF THE COPYIST ABOUT THIS PICTURE: All quadrant values: the print is very small, and the decimal sign may be a comma or a point in every value / Con-3, Day 2, Q4: 85,7 or 86,7 / Con-3, Day 2, Q1: 2,98 or 2,96 / Con-3, Day3, Q3: 5,31 or 6,31 / Con-3, Day3, Q2: 19,5 or 19,6 / Con-3, Day3, Q4: 58,0 or 56,0 / Con-3, Day4, Q3: 3,54 or 3,64 / Con-3, Day4, Q1: 36,4 or 38,4 / Con-7, Day 2, Q3: 6,31 or 8,31 / Con-7, Day 2, Q4: 82,8 or 82,6 / Con-7, Day 2, Q1: 3,13 or 3,15 / Con-7, Day3, Q3: 8,11 or 6,11 / Con-7, Day3, Q2: 19,8 or 19,6 / Con-7, Day3, Q4: 56,8 or 58,8 / Con-7, Day3, Q1: 15,3 or 15,8 / Con-7, Day4, Q3: 3,48 or 3,46 / Con-7, Day4, Q4: 36,9 or 38,9 / Con-7, Day4, Q1: 39,9 or 38,9 / Mitoxantrone, Day 2, Q3: 6,49 or 8,49 / Mitoxantrone, Day 2, Q2: 9,40 or 8,40 / Mitoxantrone, Day 2, Q4: 80,4 or 60,4 / Mitoxantrone, Day 2, Q1: 3,67 or 3,87 / Mitoxantrone, Day3, Q2: 18,9 or 16,9 / Mitoxantrone, Day3, Q4: 61,0 or 81,0 / Mitoxantrone, Day3, Q1: 13,1 or 15,1 […]
SKOV-3 cells were seeded into 12-well plates at a density of 50,000 cells/well and incubated overnight in DMEM/F12 (1:1) containing 3.15 g/L glucose and 10% BCS, at 37 °C and 5% CO2. At the end of the incubation, the culture medium was replaced with a fresh one containing 3.15 g/L glucose and 2% BCS, with or without GnRH analogs or mitoxantrone at a concentration of 1 μΜ, and the cells were further incubated at 37 °C and 5% CO2 for 2, 3 and 4 days. […]

EC50 (human GnRH-R) | Compound | effect on proliferation of SKOV-3 cells, in words (SKOV-3 cells [1]) | effect on viability of SKOV-3 cells, in words (SKOV-3 cells [2])
0.67 nM | CCNC(=O)[C@@H]1CCCN1C(=O)[C@H](CCCNC(=N)N)NC(=O)[C@H](CC(C)C)NC(=O)[C@@H](CS)NC(=O)[C@H](Cc1ccc(O)cc1)NC(=O)[C@H](CO)NC(=O)[C@H](Cc1c[nH]c2ccccc12)NC(=O)[C@H](Cc1c[nH]cn1)NC(=O)[C@@H]1CCC(=O)N1 [Con-P2] | – | –
– | CCNC(=O)[C@@H]1CCCN1C(=O)[C@H](CCCNC(=N)N)NC(=O)[C@H](CC(C)C)NC(=O)[C@@H](CCCCN)NC(=O)[C@H](Cc1ccc(O)cc1)NC(=O)[C@H](CO)NC(=O)[C@H](Cc1c[nH]c2ccccc12)NC(=O)[C@H](Cc1c[nH]cn1)NC(=O)[C@@H]1CCC(=O)N1 [Con-P1] | did not affect the proliferation of SKOV-3 cells | did not affect the viability of SKOV-3 cells
